Values of other authors, collected in patent publication US4996197A, “Pharmaceutical and/or cosmetic composition for local use containing Rhamsan gum” (Laboratoires Merck Sharp & Dohme-Chibret, priority 1987, dated 1991).

Conditions: with polyvinyl alcohol; Maichuk, Am. J. Ophthal, 74: 694, 1972

Molecule	pharmacological response to medicinal products
Nc1ccc(S(=O)(=O)[N-]c2cccnn2)cc1.[Na+] [sulphapyridazine sodium]	enhances the pharmacological response
erythrocin propionate	enhances the pharmacological response
